Assays:
[1] = tested on: Panc02 and SKOV3 cells; experiment: Lactate production inhibition assay (FIGS. 8C and 8D); assay type: cell-based; details: 48 hours treatment, 1.5 to 10000 nM
Description: Recombinant Lactate Dehydrogenase A (LDHA) was used to convert lactate in tissue culture supernatants to pyruvate, with the concomitant reduction of NAD^+ to NADH. The electron acceptor 1-methoxyphenazine methosulfate (MPMS) was then reduced by the generated NADH, thereby regenerating NAD+. Reduced 1-methoxyphenazine methosulfate is used in turn to reduce Water Soluble Tetrazolium 8 (WST8) to an orange WST8 formazan product. The assay is adapted from the publication “Application of WST-8 based colorimetric NAD(P)H detection for quantitative dehydrogenase assays” described in Chamchoy et al., BMC Biochemistry (2019) 20(1):4.
Cells were plated at 4,000 per well in 96-well plate in a medium of high glucose DMEM (PAN) supplemented with 10% FBS (PAN), 2 mM glutamine-alanine (PAN), 2 mM pyruvate (Sigma) and 10 mL/L penicillin-streptomycin (PAN) and grown at 37° C. in 0.5% O2, 5% CO2 and 75% humidity. For hypoxia, cells were grown and treated in the Whitley H35 Hypoxystation (Don Whitley Scientific) at 37° C. in 0.5% O2, 5% CO2 and 75% humidity. The next day, cells were induced with test compounds (FIG. 2: compounds of examples 3/16, 3/8, 10 at 10000, 3333, 1111, 370, 123, 41, 14, 5 and 1.5 nM; FIG. 7: compounds of examples 3/16, 3/8, 10 at 41, 14, 4.6 nM and Phenformin at 100, 50, 25, 12.5, 6.25 μM; FIGS. 8C and 8D: compounds of example 3/16, 3/8, 10, 3/19, 30 and 30/2 at 10000, 3333, 1111, 370, 123, 41, 14, 5 and 1.5 nM), as well as with vehicle (DMSO) only, for 48 hours. After this time, the medium was removed from the cells to measure extracellular lactate. To detect extracellular lactate, cell supernatants are diluted 1:5 in assay buffer (0.2 M tris, pH 8.2) by adding 10 μl cell supernatant+40 μl buffer in a 96-well plate. Assay substrate mix is prepared by adding NAD+ (3.75 mM), WST-8 (0.9 mM), MPMS (10 mM) and recombinant LDHA, expressed in E. coli as an N-terminal hexahistidine tagged fusion protein, is added to a final concentration of 0.8 μg/ml in assay buffer. Thereafter, 80 μl of substrate mix is added to 20 μl of diluted cell supernatant in a 96-well flat-bottomed plate and the absorbance at 460 nm determined at one minute intervals over a 30 minute period. A standard curve of known lactate concentrations of 10, 8, 6, 4, 1, 0.5 and 0.25 mM was constructed for each assay plate.

[2] = biological target: p70-S6K (Thr389) (Homo sapiens (Human), UniProt P23443); experiment: Western Blot analysis of p70-S6K phosphorylation; assay type: cell-based; details: HeLa cells, 24 hours, 10, 30 and 100 nM, also with Bafilomycin A, normoxic condition, FIG. 5
Method: Western Blot analysis was used to detect amounts of specific protein in differently treated cells. Proteins are separated by size, transferred onto a nitrocellulose membrane and incubated with protein specific antibodies. The density of the observed band is proportional to the amount of the specific protein inside the cell.
Cells were plated at 4×10^6 (for hypoxia) or 3×10^6 (for normoxia) cells per […] plate in medium of high glucose DMEM (PAN) supplemented with 10% FBS (PAN), 2 mM glutamine-alanine (PAN), 2 mM pyruvate (Sigma) and 10 ml/L penicillin-streptomycin (PAN), and grown at 37° C. in 0.5% O2, 5% CO2 and 75% humidity. For hypoxia, cells were grown and treated in the Whitley H35 Hypoxystation (Don Whitley Scientific) at 37° C. in 0.5% O2, 5% CO2 and 75% humidity. Next day, the cells were treated with test compounds (FIG. 4: compounds of example 3/8 and 10 at concentrations 0.1, 0.3 and 1 μM, Bafilomycin A at 20 nM; FIG. 5: compounds of example 3/16, 3/8 and 10 at concentrations 10, 30 and 100 nM, Bafilomycin A at 20 nM), as well as with vehicle (DMSO) only, for 24 h. […] Protein concentration of the sample was measured using the DC Protein Assay Kit (Biorad, 5000112), 22 μg of protein extract per well was loaded onto a precast SDS page gel (Biorad, 1704273). […] The chemiluminescence was measured using chemiluminescent substrate (#34580, Thermo Scientific).

p70-S6K phosphorylation (Thr389) [2]	SMILES	lactate levels [1]
dose-dependent induction	O=C(Nc1ccc(F)c(NC(=O)c2cc3ccc(OCCCN4CCCC4)cc3s2)c1)c1ccc2c(c1)OCCO2 [3/8]	dose-dependent downregulation
dose-dependent induction	Cc1ccc(NC(=O)c2ccc3c(c2)OCCO3)cc1NC(=O)c1cc2cccnc2s1 [3/16]	dose-dependent downregulation

Reference: patent US20260028334A1, “N-(3-(BENZO[B]THIOPHENE-2-CARBOXAMIDO)-PHENYL)-2,3-DIHYDROBENZO[B][1,4]DIOXINE-6-CARBOXAMIDE DERIVATIVES AND RELATED COMPOUNDS AS LACTATE/ATP PRODUCTION INHIBITORS FOR THE TREATMENT OF CANCER” (WMT Aktiengesellschaft, priority 2022, published 2026)
